The results in this text go back to patent publication US20120004244A1, “Bis Aromatic Compounds for Use as LTC4 Synthase Inhibitors” (BIOLIPOX AB, priority 2009, published 2012).

In the first test the target is T1, Recombinant human LTC4 synthase (Homo sapiens, UniProt Q16873).
T1 construct: made in house; host or cells: Pichia pastoris ('Piccia pastoralis' [sic])
T1 sequence (Q16873 1-150): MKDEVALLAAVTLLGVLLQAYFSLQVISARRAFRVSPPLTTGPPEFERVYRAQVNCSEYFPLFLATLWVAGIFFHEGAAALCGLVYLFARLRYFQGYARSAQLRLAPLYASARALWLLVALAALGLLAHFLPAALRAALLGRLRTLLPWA
Briefly: LTC4 synthase in vitro assay (LTA4 to LTC4, HTRF detection). The class given is biochemical.
Conditions: not given
An outline of the steps:
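Purified recombinant human LTC4 synthase expressed in Pichia (0.5 μg/mL total protein) was preincubated with inhibitor at 10 μM final for 10 min at room temperature in PBS pH 7.4 with 5 mM GSH. LTA4 was then added at 2.5 μM final, and after 5 min at room temperature LTC4 was detected by HTRF.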
The IC50 is the concentration needed to halve the response being measured. `CN(c1ccc(Cl)cc1)c1ccc(C(=O)c2ccc(C(=O)c3ccc(C(F)(F)F)cc3)c(C(=O)O)c2)nc1` [5:11]: the concentration for half-maximal inhibition (IC50) was found to be 0.216 µM. In the case of `CN(c1ccc(Cl)cc1)c1ccc(C(=O)c2ccc(C(=O)c3ccc([N+](=O)[O-])cc3)c(C(=O)O)c2)nc1` [5:12], the IC50 was found to be 0.202 µM. `CN(c1ccc(Cl)cc1)c1ccc(C(=O)c2ccc(C(=O)C(C)(C)C)c(C(=O)O)c2)nc1` [5:13, 5-{5-[(4-Chlorophenyl)(methyl)amino]picolinoyl}-2-(2,2-dimethylpropionyl)-benzoic acid]: the IC50 came out at 0.491 µM.

As for `CCOc1ccc(C(=O)c2ccc(C(=O)c3ccc(N(C)c4ccc(Cl)cc4)cn3)cc2C(=O)O)cc1OCC` [5:14, 5-{5-[(4-Chlorophenyl)(methyl)amino]picolinoyl}-2-(3,4-diethoxybenzoyl)-benzoic acid], the IC50 was determined as 0.077 µM. On the same count and under the same terms, the value for `CN(c1ccc(Cl)cc1)c1ccc(C(=O)c2ccc(C(=O)c3ccc(F)cc3)c(C(=O)O)c2)nc1` [5:15, 5-{5-[(4-Chlorophenyl)(methyl)amino]picolinoyl}-2-(4-fluorobenzoyl)benzoic acid] was 0.126 µM. On the same count and under the same terms, the value for `CN(c1ccc(Cl)cc1)c1ccc(C(=O)c2ccc(C(=O)Cc3ccccc3)c(C(=O)O)c2)nc1` [5:16, 5-{5-[(4-Chlorophenyl)(methyl)amino]picolinoyl}-2-phenylacetylbenzoic acid] was 0.257 µM; that for `CCCCCCC(=O)c1ccc(C(=O)c2ccc(N(C)c3ccc(Cl)cc3)cn2)cc1C(=O)O` [5:17, 5-{5-[(4-Chlorophenyl)(methyl)amino]picolinoyl}-2-heptanoylbenzoic acid] was 0.09 µM; that for `CN(c1ccc(Cl)cc1)c1ccc(C(=O)c2ccc(C(=O)C3CCCCC3)c(C(=O)O)c2)nc1` [5:18, 5-{5-[(4-Chlorophenyl)(methyl)amino]picolinoyl}-2-cyclohexylcarbonylbenzoic acid] was 0.246 µM. On the same count and under the same terms, the same measure for `CN(c1ccc(Cl)cc1)c1ccc(C(=O)c2ccc(C(=O)C3(c4ccccc4)CC3)c(C(=O)O)c2)nc1` [5:19]: 0.032 µM; for `CN(c1ccc(Cl)cc1)c1ccc(C(=O)c2ccc(C(=O)c3cccs3)c(C(=O)O)c2)nc1` [5:20, 5-{5-[(4-Chlorophenyl)(methyl)amino]picolinoyl}-2-(2-thienylcarbonyl)benzoic acid]: 0.104 µM; for `Cc1ccc(N(C)c2ccc(C(=O)c3ccc(C(=O)c4ccccc4)c(C(=O)O)c3)nc2)cc1` [5:21]: 0.25 µM. Consider `Cc1cc(Cl)ccc1N(C)c1ccc(C(=O)c2ccc(C(=O)c3ccccc3)c(C(=O)O)c2)nc1` [5:22, 2-Benzoyl-5-{5-[(4-chloro-2-methylphenyl)(methyl)amino]picolinoyl}benzoic acid], for which the concentration for half-maximal inhibition (IC50) came to 0.442 µM. On to `CCc1ccc(N(C)c2ccc(C(=O)c3ccc(C(=O)c4ccccc4)c(C(=O)O)c3)nc2)cc1` [5:23], for which the IC50 is 0.184 µM. Same read-out and setting: the same measure for `CN(c1ccc(Cl)cc1)c1ccc(C(=O)c2ccc(C(=O)c3ccc4c(c3)OCO4)c(C(=O)O)c2)nc1` [5:24, 5-{5-[(4-Chlorophenyl)(methyl)amino]picolinoyl}-2-(3,4-methylenedioxy-benzoyl)benzoic acid]: 0.077 µM; for `CN(c1ccc(Cl)cc1)c1ccc(C(=O)c2ccc(C(=O)C3CCCO3)c(C(=O)O)c2)nc1` (stereo not shown) [5:25, 5-{5-[(4-Chlorophenyl)(methyl)amino]picolinoyl}-2-tetrahydrofuran-2-carbonylbenzoic acid]: 0.86 µM. On the same count and under the same terms, the value for `CN(c1ccc(Cl)cc1)c1ccc(C(=O)c2ccc(C(=O)c3ccc4c(c3)OCCO4)c(C(=O)O)c2)nc1` [5:26] was 0.027 µM; that for `CN(c1ccc(Cl)cc1)c1ccc(C(=O)c2ccc(C(=O)c3cccc(C(F)(F)F)c3)c(C(=O)O)c2)nc1` [5:27] was 0.054 µM. Still for that read-out and setting: the value for `CN(c1ccc(Cl)cc1)c1ccc(C(=O)c2ccc(C(=O)c3cccc(OC(F)(F)F)c3)c(C(=O)O)c2)nc1` [5:28] was 0.06 µM; that for `CN(c1ccc(Cl)cc1)c1ccc(C(=O)c2ccc(C(=O)c3ccccc3C(F)(F)F)c(C(=O)O)c2)nc1` [5:29] was 0.245 µM. For `CN(c1ccc(Cl)cc1)c1ccc(C(=O)c2ccc(Oc3ccccc3)c(C(=O)O)c2)cn1` [6:1], the IC50 came out at 0.667 µM. `CN(c1ccc(Cl)cc1)c1ccc(C(=O)c2ccc(Oc3ccc(F)c(F)c3)c(C(=O)O)c2)cn1` [6:2]: the IC50 was 0.63 µM. Still for that read-out and setting: the value for `O=C(c1ccc(Oc2ccccc2)c(C(=O)O)c1)c1ccc(-c2cccc(Cl)c2)cn1` [7:1, 5-[5-(3-Chlorophenyl)picolinoyl]-2-phenoxybenzoic acid] was 1.11 µM. Same read-out and setting: the same measure for `O=C(c1ccc(Oc2ccccc2)c(C(=O)O)c1)c1ccc(-c2ccc(Cl)cc2)cn1` [7:2, 5-[5-(4-Chlorophenyl)picolinoyl]-2-phenoxybenzoic acid]: 0.752 µM; for `O=C(c1ccc(Oc2ccccc2)c(C(=O)O)c1)c1ccc(-c2cccc(C(F)(F)F)c2)cn1` [7:3, 2-Phenoxy-5-[5-(3-trifluoromethylphenyl)picolinoyl]benzoic acid]: 0.7 µM; for `O=C(c1ccc(N(CC2CC2)c2ccc(Cl)cc2)cc1)c1cc(C(=O)O)c(Oc2ccccc2)cn1` [8:1, 2-{4-[(4-Chlorophenyl)(cyclopropylmethyl)amino]benzoyl}-5-phenoxyisonicotinic acid]: 0.082 µM.

In the case of `CN(c1ccc(Cl)cc1)c1ccc(C(=O)c2cc(C(=O)O)c(Oc3ccccc3)cn2)cc1` [8:2], the IC50 is 0.302 µM.

On to `CN(c1ccc(Cl)cc1)c1ccc(C(=O)c2ccc(Oc3ccccc3)c(C(=O)O)n2)cc1` [9:1, 6-{4-[(4-Chlorophenyl)(methyl)amino]benzoyl}-3-phenoxypicolinic acid], for which the IC50 was 0.742 µM. Same read-out and setting: the same measure for `CN(c1ccc(Cl)cc1)c1ccc(C(=O)c2ccc(Oc3ccc(F)c(F)c3)c(C(=O)O)n2)cc1` [9:2]: 0.834 µM.

Turning to `CN(c1ccc(Cl)cc1)c1cnc(C(=O)c2ccc(Oc3ccc(F)cc3)c(C(=O)O)c2)nc1` [10:1, 5-{5-[(4-Chlorophenyl)(methyl)amino]pyrimidine-2-carbonyl}-2-(4-fluorophenoxy)-benzoic acid], the IC50 was determined as 0.154 µM. The same measure, in the same setting: the same measure for `CN(c1ccc(Cl)cc1)c1cnc(C(=O)c2ccc(Oc3ccccc3)c(C(=O)O)c2)nc1` [10:3, 5-{5-[(4-Chlorophenyl)(methyl)amino]pyrimidine-2-carbonyl}-2-phenoxybenzoic acid]: 0.3 µM. On the same count and under the same terms, the same measure for `O=C(c1ccc(Oc2ccccc2)c(C(=O)O)c1)c1ncc(N(CC2CC2)c2ccc(Cl)cc2)cn1` [10:4, 5-{5-[(4-Chlorophenyl)(cyclopropylmethyl)amino]pyrimidine-2-carbonyl}-2-phenoxybenzoic acid]: 0.132 µM; for `O=C(c1ccc(Oc2ccccc2)c(C(=O)O)c1)c1ncc(N(Cc2ccccc2)c2ccc(Cl)cc2)cn1` [10:5, 5-{5-[(Benzyl)(4-chlorophenyl)amino]pyrimidine-2-carbonyl}-2-phenoxybenzoic acid]: 0.119 µM; for `O=C(c1ccc(Oc2ccccc2)c(C(=O)O)c1)c1ccc(OCc2cccc(Cl)c2)cn1` [11:1, 5-[5-(3-Chlorobenzyloxy)picolinoyl]-2-phenoxybenzoic acid]: 0.143 µM. As to `COc1ccc(Oc2ccc(C(=O)c3ccc(OCc4cccc(Cl)c4)cn3)cc2C(=O)O)cc1` [11:2, 5-[5-(3-Chlorobenzyloxy)picolinoyl]-2-(4-methoxyphenoxy)benzoic acid], the IC50 came to 0.345 µM. Consider `O=C(c1ccc(Oc2ccccc2)c(C(=O)O)c1)c1ccc(OCc2cccc(C(F)(F)F)c2)cn1` [11:5, 2-Phenoxy-5-[5-(3-trifluoromethylbenzyloxy)picolinoyl]benzoic acid], for which the IC50 was 0.181 µM.

`O=C(c1ccc(Oc2ccccc2)c(C(=O)O)c1)c1ccc(OCc2ccc(C(F)(F)F)cc2)cn1` [11:6, 2-Phenoxy-5-[5-(4-trifluoromethylbenzyloxy)picolinoyl]benzoic acid]: the IC50 came to 0.351 µM. Take `O=C(c1ccc(Oc2ccccc2)c(C(=O)O)c1)c1ccc(OCc2ccccc2C(F)(F)F)cn1` [11:7, 2-Phenoxy-5-[5-(2-trifluoromethylbenzyloxy)picolinoyl]benzoic acid]: the IC50 was determined as 0.931 µM. As for `O=C(c1ccc(Oc2ccccc2)c(C(=O)O)c1)c1ccc(OCc2cccc(Br)c2)cn1` [11:8, 5-[5-(3-Bromobenzyloxy)picolinoyl]-2-phenoxybenzoic acid], the IC50 is 0.126 µM. Same read-out and setting: the value for `O=C(c1ccc(Oc2ccccc2)c(C(=O)O)c1)c1ccc(OCc2ccc(Cl)c(Cl)c2)cn1` [11:9, 5-[5-(3,4-Dichlorobenzyloxy)picolinoyl]-2-phenoxybenzoic acid] was 0.069 µM; that for `COc1ccc(COc2ccc(C(=O)c3ccc(N(C)c4ccc(Cl)cc4)cn3)cc2C(=O)O)cc1` [12:1, 5-{5-[(4-Chlorophenyl)(methyl)amino]picolinoyl}-2-(4-methoxybenzyloxy)benzoic acid] was 0.38 µM. For the compound `CN(c1ccc(Cl)cc1)c1ccc(C(=O)c2ccc(OCc3ccccc3Cl)c(C(=O)O)c2)nc1` [12:2, 2-(2-Chlorobenzyloxy)-5-{5-[(4-chlorophenyl)(methyl)amino]picolinoyl}benzoic acid], the IC50 was 0.184 µM. With `CN(c1ccc(Cl)cc1)c1ccc(C(=O)c2ccc(OCc3ccc(Cl)cc3)c(C(=O)O)c2)nc1` [12:3, 2-(4-Chlorobenzyloxy)-5-{5-[(4-chlorophenyl)(methyl)amino]picolinoyl}benzoic acid], the IC50 came out at 0.364 µM.

Staying with this test, now noted: 5 min; total concentration of title compound in the assay 10 μM.
As a reminder, the inhibition is the drop in the measured response relative to a control, in per cent. `CN(c1ccc(Cl)cc1)c1ccc(C(=O)c2ccc(Oc3ccccc3)c(C(=O)O)c2)cn1` [6:1]: the inhibition at 10 µM is 94%. With `CN(c1ccc(Cl)cc1)c1ccc(C(=O)c2ccc(Oc3ccc(F)c(F)c3)c(C(=O)O)c2)cn1` [6:2], the inhibition at 10 µM was determined as 96%. Same read-out and setting: the value for `O=C(c1ccc(N(CC2CC2)c2ccc(Cl)cc2)cc1)c1cc(C(=O)O)c(Oc2ccccc2)cn1` [8:1, 2-{4-[(4-Chlorophenyl)(cyclopropylmethyl)amino]benzoyl}-5-phenoxyisonicotinic acid] was 99%; that for `CN(c1ccc(Cl)cc1)c1ccc(C(=O)c2cc(C(=O)O)c(Oc3ccccc3)cn2)cc1` [8:2] was 99%. In the case of `CN(c1ccc(Cl)cc1)c1ccc(C(=O)c2ccc(Oc3ccccc3)c(C(=O)O)n2)cc1` [9:1, 6-{4-[(4-Chlorophenyl)(methyl)amino]benzoyl}-3-phenoxypicolinic acid], the inhibition at 10 µM worked out at 94%. `CN(c1ccc(Cl)cc1)c1ccc(C(=O)c2ccc(Oc3ccc(F)c(F)c3)c(C(=O)O)n2)cc1` [9:2]: the inhibition at 10 µM is 94%. Regarding `CN(c1ccc(Cl)cc1)c1cnc(C(=O)c2ccc(Oc3ccc(F)cc3)c(C(=O)O)c2)nc1` [10:1, 5-{5-[(4-Chlorophenyl)(methyl)amino]pyrimidine-2-carbonyl}-2-(4-fluorophenoxy)-benzoic acid], the inhibition at 10 µM turned out to be 97%.
